This note sets out measurements from ChEMBL document CHEMBL3774373, “Activity and Predicted Nephrotoxicity of Synthetic Antibiotics Based on Polymyxin B” (J Med Chem, 2016).

Some results are limits rather than exact numbers.

The nature of data set [1]: Cytotoxicity against HK2 cells assessed as GGT release by Western blot analysis. The format is cell-based, HK-2. The following applies: human, hk-2. (In general: In western blotting, separated proteins are transferred to a membrane and probed.)
A short description of data set [2]: Cytotoxicity against HK2 cells assessed as LDH release by Western blot analysis. Particulars: human, hk-2. The format is cell-based, HK-2.
Another data set relates to HepG2. As to the kind of experiment: Cytotoxicity against human HepG2 cells after 24 hrs by resazurin assay. In kind it is cell-based. Particulars: hepg2, 24 h.
The subject of a further data set is HEK293. The experiment in a line: Cytotoxicity against HEK293 cells after 24 hrs by resazurin assay. In kind it is cell-based. Particulars: human, hek293, 24 h. A general note: Resazurin is reduced to fluorescent resorufin, in cell work by metabolically active cells.

The CC50 is the concentration at which the toxic effect on the cells reaches its halfway point. For the sequence GENTAMICIN, the CC50 in data set [1] was 33 µg/mL; in data set [2], 33 µg/mL; in the data set on HepG2, > 300 µM; in the data set with HEK293, > 300 µM.
